The target in test [1] is T1, 5'-AMP-activated protein kinase subunit beta-1 (Homo sapiens) (UniProt Q9Y478).
T1 sequence (whole entry): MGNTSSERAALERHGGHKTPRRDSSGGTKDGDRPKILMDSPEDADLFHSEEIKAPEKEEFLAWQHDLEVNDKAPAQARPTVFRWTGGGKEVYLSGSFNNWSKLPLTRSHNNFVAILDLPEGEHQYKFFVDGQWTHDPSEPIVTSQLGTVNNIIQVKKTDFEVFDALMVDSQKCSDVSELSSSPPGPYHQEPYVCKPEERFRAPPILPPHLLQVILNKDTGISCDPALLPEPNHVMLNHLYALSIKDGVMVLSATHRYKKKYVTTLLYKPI
As to the kind of experiment: Binding affinity to HiBiT-tagged PRKAB1 (unknown origin) assessed as shift in melting/aggregation temperature by luminescence based BiTSA assay.

Test [2] concerns the target Mitogen-activated protein kinase 14 (Homo sapiens) (UniProt Q16539). As to the kind of experiment: Binding affinity to HiBiT-tagged MAPK14 (unknown origin) assessed as shift in melting/aggregation temperature at 10 uM by luminescence based BiTSA assay. For orientation: The HiBiT peptide binds its large partner to form an active luciferase.
The subject of test [3] is GTPase KRas (Homo sapiens), P01116 [G12C]. Description: Binding affinity to HiBiT-tagged KRAS G12C mutant in human NCI-H358 cells assessed as stabilization by measuring luminescence signal by BiTSA-ITDR assay. It counts as cell-based.
For test [4] the test system is unchanged. Description: Binding affinity to KRAS G12C mutant (unknown origin) by traditional Western blot CETSA analysis. In general terms: A western blot detects proteins with antibodies after separation by electrophoresis.
Test [5] concerns Cellular tumor antigen p53 (Homo sapiens), P04637 [R273H]. Description: Binding affinity to HiBiT-tagged p53 R273H mutant in human MDA-MB-468 cells assessed as p53 refolding by measuring change in melting temperature at 2.5 to 10 uM by luminescence based BiTSA assay. It counts as cell-based. Conditions: dose 2.5-10 µM.
For test [6] the test system is unchanged. Description: Binding affinity to HiBiT-tagged p53 R273H mutant in human MDA-MB-468 cells assessed as p53 refolding by measuring change in melting temperature at 25 to 100 uM by luminescence based BiTSA assay. The test is classed as cell-based. The conditions noted are these: dose 25-100 µM.

Calls of active or inactive are those of the source. No cut-off for these calls is given here.

Chain of GTPase KRas (Homo sapiens), P01116 [G12C] (P01116 whole entry G12C): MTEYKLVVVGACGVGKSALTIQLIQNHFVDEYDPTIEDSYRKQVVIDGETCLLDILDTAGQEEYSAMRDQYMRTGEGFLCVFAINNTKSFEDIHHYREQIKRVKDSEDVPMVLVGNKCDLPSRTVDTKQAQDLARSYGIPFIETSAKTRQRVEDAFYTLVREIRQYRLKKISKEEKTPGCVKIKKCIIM
Chain of Mitogen-activated protein kinase 14 (Homo sapiens) (Q16539 whole entry): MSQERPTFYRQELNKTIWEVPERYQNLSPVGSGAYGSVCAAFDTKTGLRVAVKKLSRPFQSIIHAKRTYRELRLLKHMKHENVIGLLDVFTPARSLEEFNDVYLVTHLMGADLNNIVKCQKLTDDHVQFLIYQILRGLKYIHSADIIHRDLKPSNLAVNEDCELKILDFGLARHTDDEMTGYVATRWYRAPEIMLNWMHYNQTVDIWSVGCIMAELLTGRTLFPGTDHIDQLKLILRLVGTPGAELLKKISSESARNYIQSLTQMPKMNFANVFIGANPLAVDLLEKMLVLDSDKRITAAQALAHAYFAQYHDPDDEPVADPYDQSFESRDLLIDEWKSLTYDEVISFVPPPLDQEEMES

Regarding `O[C@@H]1CO[C@H]2[C@@H]1OC[C@H]2Oc1nc2nc(-c3ccc(-c4ccccc4)cc3)c(Cl)cc2[nH]1`, the outcome in test [1] was inactive.

In the case of `Cn1c(NC[C@@H](N)Cc2ccccc2)nc(-c2ccncc2)c(-c2ccc3ccccc3c2)c1=O`, the Tm in test [2] amounted to 12.4 °C.

Consider `C=CC(=O)N1CCN(c2ncnc3c(F)c(-c4c(O)cccc4F)c(Cl)cc23)CC1`, for which, in test [3], the result was inactive. Besides, the outcome in test [4] was Active.

For `CN(C)CCCNc1nc(CN2CCN(C(c3ccc(Cl)cc3)c3ccc(Cl)cc3)CC2)nc2ccccc12`, in test [5], the result was inactive.

For the compound `COCC1(CO)C(=O)C2CCN1CC2` (stereo unspecified), the result in test [6] was inactive.

These data come from ChEMBL document CHEMBL4825748, “Rapid Evaluation of Small Molecule Cellular Target Engagement with a Luminescent Thermal Shift Assay” (ACS Med Chem Lett, 2021).
